Assay results from PMC4306950 (Marine Drugs, 2015).

Experiments:
[1] = target: T1, Kv1.4 (mouse LTK fibroblasts stably transfected with Kv1.4) (Homo sapiens, UniProt P22459); test: Whole-cell patch-clamp electrophysiology on Kv1.4; assay type: cell-based; conditions: for block of Kv1.4 at 100 nM: mouse LTK fibroblasts stably transfected with Kv1.4, peptide 100 nM
T1 construct: expressed in transfected cells

[2] = target: T2, hKv1.6 (HEK cells transiently transfected with hKv1.6:eGFP) (Homo sapiens, UniProt P17658); test: Whole-cell patch-clamp electrophysiology on Kv1.6; assay type: cell-based; conditions: for block of Kv1.6 at 100 nM: HEK cells transiently transfected with hKv1.6:eGFP, patched 19 h after transfection, peptide 100 nM
T2 construct: expressed in transfected cells; host or cells: HEK cells, transient, Lipofectamine 2000 (plasmid a gift from Dr. Heike Wulff)
Method: The HEK cells were patched 19 h after transfection.
(§1) Chips averaged 2–3.5 MΩ and a holding potential of −80 mV was used for all recordings. Series resistance compensation of 80% was used when currents exceeded 2 nA. The external solution was normal Ringer solution containing (in mM): 160 NaCl, 4.5 KCl, 2 CaCl2, 1 MgCl2, 10 Hepes, pH 7.4, 310 mOsm. The internal solution contained (in mM): 145 KF, 10 HEPES, 10 EGTA (ethylene glycol tetraacetic acid), 2 MgCl2, pH 7.2, 300 mOsm. Currents were elicited by repeated 200 ms pulses to 40 mV applied at intervals of 30 s for Kv1.3 and 10 s for Kv1.1. IC50 values were determined by fitting the Hill equation to the reduction of area under the current curve measured at 40 mV in the presence of different concentrations of the peptides (GraphPad Prism software, La Jolla, CA, USA).

[3] = target: T3, mKv1.3 channels stably expressed in mouse L929 fibroblasts (Mus musculus, UniProt P16390); test: Whole-cell patch-clamp electrophysiology on Kv1.3; assay type: cell-based; conditions: mKv1.3 in L929 fibroblasts, 200 ms pulses to 40 mV every 30 s, holding -80 mV, Hill fit, n = 3 to 6 cells per concentration
T3 construct: expressed in transfected cells
Method: Mouse fibroblasts stably expressing homotetramers of Kv1.1 or Kv1.3 were patch-clamped in the whole-cell configuration and steady-state block was measured after addition of different concentrations of the peptides.
as §1

[4] = test system: acute adoptive EAE, animal model of MS mediated by T lymphocytes; conditions: cited from earlier work
Source text: The Kv1.3 channel was discovered in the early 1980’s by the Chandy and Cahalan labs at the University of California Irvine and the Deutsch lab at the University of Pennsylvania. This K^+ channel, found in T lymphocytes, was the first to be described outside electrically excitable tissues. […] Kv1.3 in T lymphocytes is a voltage-gated homotetrameric membrane protein responsible for controlling the me ...

T2 sequence (P17658 whole entry): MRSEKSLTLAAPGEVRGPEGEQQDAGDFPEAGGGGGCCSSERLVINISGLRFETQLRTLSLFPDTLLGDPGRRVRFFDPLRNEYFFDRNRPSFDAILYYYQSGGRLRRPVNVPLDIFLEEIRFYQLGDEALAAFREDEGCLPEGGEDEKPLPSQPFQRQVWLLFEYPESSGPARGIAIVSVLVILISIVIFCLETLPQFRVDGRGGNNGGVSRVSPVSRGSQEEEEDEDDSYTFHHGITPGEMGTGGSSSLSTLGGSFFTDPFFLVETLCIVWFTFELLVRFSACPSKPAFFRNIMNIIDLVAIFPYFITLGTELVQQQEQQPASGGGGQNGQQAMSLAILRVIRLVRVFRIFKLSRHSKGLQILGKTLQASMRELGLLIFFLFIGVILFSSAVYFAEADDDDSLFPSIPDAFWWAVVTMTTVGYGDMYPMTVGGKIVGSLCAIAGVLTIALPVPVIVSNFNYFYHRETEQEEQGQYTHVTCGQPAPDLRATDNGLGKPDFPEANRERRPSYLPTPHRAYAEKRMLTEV
T3 sequence (P16390 whole entry): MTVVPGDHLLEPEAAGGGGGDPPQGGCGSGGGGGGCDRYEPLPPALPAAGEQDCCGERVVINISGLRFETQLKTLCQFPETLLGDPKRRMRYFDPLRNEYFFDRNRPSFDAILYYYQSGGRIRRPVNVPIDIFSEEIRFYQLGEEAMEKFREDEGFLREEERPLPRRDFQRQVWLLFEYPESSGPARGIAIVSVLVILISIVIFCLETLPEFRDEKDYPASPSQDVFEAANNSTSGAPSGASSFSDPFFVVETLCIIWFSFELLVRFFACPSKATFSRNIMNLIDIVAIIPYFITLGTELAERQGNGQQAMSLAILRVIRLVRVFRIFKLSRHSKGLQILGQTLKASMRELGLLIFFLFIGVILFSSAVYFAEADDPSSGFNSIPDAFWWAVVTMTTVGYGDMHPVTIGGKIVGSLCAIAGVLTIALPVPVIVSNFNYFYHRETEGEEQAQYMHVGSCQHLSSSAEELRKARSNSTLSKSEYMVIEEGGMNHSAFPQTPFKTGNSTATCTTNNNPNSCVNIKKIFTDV
T1 sequence (P22459 whole entry): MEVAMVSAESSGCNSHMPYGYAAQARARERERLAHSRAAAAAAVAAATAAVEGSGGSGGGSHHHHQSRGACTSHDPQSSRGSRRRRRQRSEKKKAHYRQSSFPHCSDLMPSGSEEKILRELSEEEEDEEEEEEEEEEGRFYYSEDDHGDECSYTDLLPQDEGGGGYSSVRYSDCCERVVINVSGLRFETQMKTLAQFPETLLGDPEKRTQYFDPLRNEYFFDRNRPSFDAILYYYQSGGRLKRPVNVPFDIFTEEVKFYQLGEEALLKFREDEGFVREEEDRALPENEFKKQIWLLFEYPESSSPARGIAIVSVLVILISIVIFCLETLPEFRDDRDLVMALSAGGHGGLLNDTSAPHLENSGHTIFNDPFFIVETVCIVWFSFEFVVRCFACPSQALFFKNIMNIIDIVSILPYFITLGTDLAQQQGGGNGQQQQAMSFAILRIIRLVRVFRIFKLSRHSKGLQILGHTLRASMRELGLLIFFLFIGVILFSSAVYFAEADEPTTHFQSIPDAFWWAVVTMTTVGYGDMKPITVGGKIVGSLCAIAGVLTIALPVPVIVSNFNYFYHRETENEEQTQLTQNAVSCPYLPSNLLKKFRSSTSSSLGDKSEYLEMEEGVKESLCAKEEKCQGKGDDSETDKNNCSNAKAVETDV

Molecule | IC50 [1] | IC50 [2] | IC50 [3] | block of Kv1.4 at 100 nM [1] | block of Kv1.6 at 100 nM [2] | effect on acute adoptive EAE [4]
CC[C@H](C)[C@@H]1NC(=O)[C@@H](NC(=O)[C@H](CO)NC(=O)[C@@H](N)CCCNC(=N)N)CSSC[C@@H](C(=O)O)NC(=O)[C@H]([C@@H](C)O)NC(=O)CNC(=O)[C@@H]2CSSC[C@@H]3NC(=O)[C@H](CCC(N)=O)NC(=O)[C@H](Cc4ccccc4)NC(=O)[C@H](C)NC(=O)[C@H]([C@@H](C)O)NC(=O)[C@H](CSSC[C@H](NC(=O)[C@H](Cc4ccccc4)NC(=O)[C@H](CO)NC(=O)[C@H](CC(C)C)NC(=O)[C@H](CCCNC(=N)N)NC(=O)[C@H](Cc4ccc(O)cc4)NC(=O)[C@H](CCCCN)NC(=O)[C@H](CCSC)NC(=O)[C@H](CO)NC(=O)[C@H](Cc4cnc[nH]4)NC(=O)[C@H](CCCCN)NC3=O)C(=O)N[C@@H](CCCNC(=N)N)C(=O)N[C@@H](CCCCN)C(=O)N[C@@H]([C@@H](C)O)C(=O)N2)NC(=O)[C@H](CCCNC(=N)N)NC(=O)[C@H](CO)NC(=O)[C@H](CCCCN)NC(=O)[C@@H]2CCCN2C(=O)[C@H]([C@@H](C)CC)NC(=O)[C@H]([C@@H](C)O)NC(=O)[C@H](CC(=O)O)NC1=O [ShK, reference compound] | 0.312 ± 0.014 nM | 165 ± 8 nM | 0.0133 ± 0.0014 nM | – | – | –
CC[C@H](C)[C@@H]1NC(=O)[C@@H](NC(=O)[C@H](CO)NC(=O)[C@@H](N)CCCNC(=N)N)CSSC[C@@H](C(=O)N[C@@H](C)C(=O)O)NC(=O)[C@H]([C@@H](C)O)NC(=O)CNC(=O)[C@@H]2CSSC[C@@H]3NC(=O)[C@H](CCCCN)NC(=O)[C@H](Cc4ccccc4)NC(=O)[C@H](C)NC(=O)[C@H]([C@@H](C)O)NC(=O)[C@H](CSSC[C@H](NC(=O)[C@H](Cc4ccccc4)NC(=O)[C@H](CO)NC(=O)[C@H](CC(C)C)NC(=O)[C@H](CCCNC(=N)N)NC(=O)[C@H](Cc4ccc(O)cc4)NC(=O)[C@H](CCCCN)NC(=O)[C@H](CCSC)NC(=O)[C@H](CO)NC(=O)[C@H](Cc4c[nH]cn4)NC(=O)[C@H](CCCCN)NC3=O)C(=O)N[C@@H](CCCNC(=N)N)C(=O)N[C@@H](CCCCN)C(=O)N[C@@H]([C@@H](C)O)C(=O)N2)NC(=O)[C@H](CCCNC(=N)N)NC(=O)[C@H](CO)NC(=O)[C@H](CCCCN)NC(=O)[C@@H]2CCCN2C(=O)[C@H]([C@@H](C)CC)NC(=O)[C@H]([C@@H](C)O)NC(=O)[C@H](CC(=O)O)NC1=O [ShK-234] | – | – | 0.037 ± 0.0046 nM | <15% block at 100 nM | ~25% | –
CC[C@H](C)[C@@H]1NC(=O)[C@H](CO)NC(=O)[C@H](Cc2c[nH]cn2)NC(=O)[C@H](CCCCN)NC(=O)[C@@H]2CSSC[C@@H]3NC(=O)[C@H]([C@@H](C)O)NC(=O)[C@H](CCCCN)NC(=O)[C@H](CCCNC(=N)N)NC(=O)[C@H](CSSC[C@H](NC(=O)[C@H](CCCNC(=N)N)NC(=O)[C@H](CO)NC(=O)[C@H](CCCCN)NC(=O)[C@@H]4CCCN4C(=O)[C@H]([C@@H](C)CC)NC(=O)[C@H]([C@@H](C)O)NC(=O)[C@H](CC(=O)O)NC(=O)[C@H]([C@@H](C)CC)NC(=O)[C@@H](NC(=O)[C@H](CO)NC(=O)[C@@H](N)CCCNC(=N)N)CSSC[C@@H](C(=O)N[C@@H](C)C(=O)O)NC(=O)[C@H]([C@@H](C)O)NC(=O)CNC3=O)C(=O)N[C@@H]([C@@H](C)O)C(=O)N[C@@H](C)C(=O)N[C@@H](Cc3ccccc3)C(=O)N[C@@H](CCCCN)C(=O)N2)NC(=O)[C@H](Cc2ccccc2)NC(=O)[C@H](CO)NC(=O)[C@H](CC(C)C)NC(=O)[C@H](CCCNC(=N)N)NC(=O)[C@H](Cc2ccc(O)cc2)NC(=O)[C@H](CCCCN)NC1=O [ShK-235] | – | – | 0.062 ± 0.0132 nM | <15% block at 100 nM | ~25% | –
kaliotoxin | – | – | – | – | – | ameliorate clinical signs
